# According to patent US20110262552A1, “Compositions Comprising Plant Extracts and Use Thereof for Treating Inflammation” (priority 2008, published 2011):
# Legend:
# [1] = test system: carrageenan-induced paw edema; assay: Carrageenin-induced acute inflammation (paw edema) in mice; type: in vivo, CD-1 mice; conditions: oral; for % inhibition (hind paw edema): 1 h before intra-plantar carrageenan, edema 4 h after, compositions 1-4 250 mg/kg total, Aspirin 150, Phenylbutazone 30, Celebrex 10, Naproxen 30 mg/kg; for anti-inflammatory activity in carrageenan-induced paw edema assay: doses as in Table V
# Description: Male CD-1 (Crl.) derived mice weighing 22±1 g were obtained from BioLasco Taiwan (under Charles River Laboratories Technology Licensee). All animals were housed in a controlled temperature (22° C.-24° C.) and humidity (60%-80%) environment with 12 hours light/dark cycles for at least one week prior to experimental use. The animals had free access to standard lab chow for mice (MF-18 (Oriental Yeast Co., Ltd., Japan) and Reverse Osmosis water was granted. All aspects of the study including housing, experimentation and disposal of animals were performed in general accordance with the Guide for the Care and Use of Laboratory Animals (National Academy Press, Washington, D.C., 1996). Groups of 5 CD-1 male mice were fasted overnight prior to use. The test substances were administered orally one hour before intra-plantar injection of the right hind paw with carrageenan (50 μl of 1% suspension).
# [2] = test system: Complete Freund's Adjuvant-induced arthritis (hind paw volume); assay: Adjuvant-induced arthritis in rats; type: in vivo, Lewis rats; conditions: reference drugs oral once daily for 5 days: Phenylbutazone 35, Celebrex 10, Dexamethasone 5 mg/kg
# Description: The study was conducted in male Lewis rats obtained from Charles River Japan, Inc. The animals were housed in a controlled temperature (21° C.-24° C.) and humidity (54%-68%) environment with 12 hour light/dark cycles for at least 1 week prior to use. Rats had Laboratory Rodent Diet MF-18 (Oriental Yeast Co., Ltd., Japan) and water (reverse osmosis purified water) ad libitum. The entire study and animal conditions and manipulations were conducted in accordance with the Guide for the Care and Use of Laboratory Animals (National Academy Press, Washington, D.C., 1996).
# Eight groups of 5 rats weighing approximately 210±10 g were used. […] A dosing volume of 10 ml/kg was used. A well-ground suspension of killed Mycobacterium tuberculosis (0.3 mg in 0.1 ml of light mineral oil (CFA) was administered in a single dose into the subplantar region of the right hind paw 1 hour following the first dose of the test and reference compositions.
# Right hind paw volume was measured 4 hours after single CFA injection (denoted day 1), and on day 5 (acute phase), while the left hind paw (without CFA) volume was measured on day 14 and 18 (delayed phase). Hind paw volume was measured by plethysmometer and water cell (25 mm diameter).
# [3] = test system: knee pain associated with arthrosis
# Description: A 10 year old Husky with a history of bilateral rupture of the cruciate ligament had bilateral knee surgery to correct this problem. The animal was also known to have zinc deficiency.
# The dog was prescribed metacam for knee pain associated with arthrosis.
structure (smiles),measurement,setting,value
CC(=O)Oc1ccccc1C(=O)O [Aspirin],% inhibition (hind paw edema),[1],36%
same,anti-inflammatory activity in carrageenan-induced paw edema assay,[1],significant anti-inflammatory activity
Cc1ccc(-c2cc(C(F)(F)F)nn2-c2ccc(S(N)(=O)=O)cc2)cc1 [Celebrex],% inhibition (hind paw edema),[1],23%
same,anti-inflammatory activity in carrageenan-induced paw edema assay,[1],significant anti-inflammatory activity
same,% inhibition Day 14-0,[2],20%
same,% inhibition Day 18-0,[2],25%
same,% inhibition Day 18-14,[2],30%
COc1ccc2cc([C@H](C)C(=O)O)ccc2c1 [Naproxen],% inhibition (hind paw edema),[1],36%
same,anti-inflammatory activity in carrageenan-induced paw edema assay,[1],significant anti-inflammatory activity
CCCCC1C(=O)N(c2ccccc2)N(c2ccccc2)C1=O [Phenylbutazone],% inhibition (hind paw edema),[1],23%
same,% inhibition Day 14-0,[2],"18, 18, 18%"
same,% inhibition Day 18-0,[2],"18, 18, 18%"
same,% inhibition Day 18-14,[2],"18, 18, 18%"
Cc1cnc(NC(=O)C2=C(O)c3ccccc3S(=O)(=O)N2C)s1 [metacam],pain control / pain relief (clinical examination),"[3]; 10 year old Husky, composition #8 1 gram per 10 kg body weight daily, a few weeks",only partially controlled
same,intolerance,"[3]; dog, in vivo",signs of intolerance
